Laboratory results published in patent publication US20220202739A1, “ENDOCANNABINOID MIMETIC AND ANTI-INFLAMMATORY COMPOUND CONTAINING COMPOSITIONS, METHODS OF PREPARATION AND USES THEREOF” (priority 2019, published 2022).
Like-named read-outs stand apart in the source and are kept apart here.

Experiments:
Assay type in all cases: cell-based
[1] = test system: MAGL; experiment: Gene expression custom microarray, human skin fibroblasts (Example 1): MAGL; conditions: for MAGL↓ gene expression, fold increase or decrease vs untreated cells: human skin fibroblasts, 10 uM, 24 hr
Source text: (§1) Cell cultures: A human skin fibroblast cell culture (or cultures) was obtained through the Coriell Cell Repository from the National Institute on Aging Cell Repository (Camden, N.J.), or Promocell GmbH (Heidelberg, Germany). The initial culture was selected from the following cell lines: AG13066, AG11557, AG11796 or GM03651E. The cell lines were derived from donors as follows:
(§2) Experimental phase: When the appropriate quantity of cells had been grown, they were detached as described above, but at the final step were seeded into each well of one or more 6 well dishes. Each well received 2 ml of the cell suspension so they were seeded equally. The dishes were returned to the incubator until 85-95% confluency was reached.
(§3) It is at this stage that all wells were rinsed in PBS after aspirating the growth media. The compound(s) to be tested were previously mixed into a suitable solvent (e.g., DMSO or ethanol) that can be diluted to the desired concentration of test compound (10 μl) in the culture wells without exceeding maximum solvent concentrations and adversely effecting cell viability, and mixed with basal media. NOTE: Standard maximum levels of solvent are 0.1% for DMSO and 0.5% for ETOH. The concentration of each test compound is found in Tables 1 & 2.
(§4) Every 2 wells on the 6 well plate served as a biological replicate for the purposes of RNA isolation and genetic expression evaluations making each 6 well dish an n=3 for the test compound(s) contained in the media. Negative control plates (no test compound(s) and only basal media) were also generated. The plates were returned to the incubator for 24 hrs.
(§5) At the end of the 24 hr time period, the plates were removed from the incubator, the test media aspirated, and the cells rinsed with PBS. RNA isolation is performed using the BioRad Aurum Total RNA Mini Kit (Hercules, Calif.) per manufacturer's protocol; which is described, in brief, below: • Add 350 μl of lysis buffer to each well. Pipet multiple times to ensure thorough lysis. Add lysed cells to the collection tube. • Add 350 μl of 70% ETOH to the collection tube and mix thoroughly. • Pipet the generated lysate onto the spin column placed in a new 2 ml tube. Centrifuge for 30 sec between 8,000 and 10,000 g. • Place the spin column containing the now bound RNA, in a new 2 ml tube. Add 700 μl of low stringency wash solution to the spin column. Centrifuge for 30 sec between 8,000 and 10,000 g. Discard the flow through and replace spin column. • Add 80 μl of DNase I dilution to the spin column and incubate at room temperature for 15 minutes. • Add 700 μl of high stringency wash solution to the column and centrifuge for 30 sec between 8,000 and 10,000 g. Discard flow through. • Add 700 μl of low stringency wash solution to the column and centrifuge for 60 sec between 8,000 and 10,000 g. Discard flow through. • Centrifuge for 2 minutes to remove residual wash solution. • Transfer spin column to new 1.5 ml collection tube and add 80 μl of elution solution to the column. Allow 1 minute for saturation of the membrane and then centrifuge for 2 minutes to complete the RNA elution. • Quantify the quantity of RNA and store at −20 C° until use (no more than 1 month)
(§6) The genes tested were: • Cannabinoid receptor 1 (CB1(CNR1)) • Cannabinoid receptor 2 (CB2 (CNR2)) • Fatty acid amide hydrolase (FAAH) • Monoacylglycerol lipase (MGLL, i.e., MAGL) • Peroxisome proliferator-activated receptor gamma (PPARG) • Nuclear factor kappa-light-chain-enhancer of activated B cells (NFκβ) • Interleukin 1 Alpha (IL1alpha) • Cyclooxygenase 1 (PTGS1, i.e., COX1) • Transient receptor potential cation channel subfamily A member 1 (TRPA1) • Transient receptor potential cation channel subfamily V member 1 (TRPV1) • Transient receptor potential cation channel subfamily M member 8 (TRPM8) • Hemoglobin Subunit Beta (HBB) REFERENCE GENE • Ribosomal Protein L13a (RPL13A) REFERENCE GENE […]

[2] = test system: NFKB1; experiment: Gene expression custom microarray, human skin fibroblasts (Example 1): NFKB1; conditions: for fold induction at 10 µM: Skin fibroblast, read-out: NFKB1↓ gene expression, fold increase or decrease vs untreated cells
Source text: as §1, §2
as §3, with “ETOH.” for “ETOH. The concentration of each test compound is found in Tables 1 & 2.”
as §4, §5
(§7) The genes tested were: • Cannabinoid receptor 1 (CB1(CNR1)) • Cannabinoid receptor 2 (CB2 (CNR2)) • Fatty acid amide hydrolase (FAAH) • Monoacylglycerol lipase (MGLL, i.e., MAGL) • Peroxisome proliferator-activated receptor gamma (PPARG) • Nuclear factor kappa-light-chain-enhancer of activated B cells (NFκβ) • Interleukin 1 Alpha (IL1alpha) • Cyclooxygenase 1 (PTGS1, i.e., COX1) • Transient receptor potential cation channel subfamily A member 1 (TRPA1) • Transient receptor potential cation channel subfamily V member 1 (TRPV1) • Transient receptor potential cation channel subfamily M member 8 (TRPM8) • Hemoglobin Subunit Beta (HBB) REFERENCE GENE • Ribosomal Protein L13a (RPL13A) REFERENCE GENE

[3] = test system: PTGS1; experiment: Gene expression custom microarray, human skin fibroblasts (Example 1): PTGS1; conditions: for PTGS1↓ gene expression, fold increase or decrease vs untreated cells: human skin fibroblasts, 10 uM, 24 hr
Source text: as §1, §2, §3, §4, §5, §6

[4] = test system: FAAH; experiment: Gene expression custom microarray, human skin fibroblasts (Example 1): FAAH; conditions: for fold induction at 10 µM: Skin fibroblast, read-out: FAAH↓ gene expression, fold increase or decrease vs untreated cells
Source text: as §1, §2, §3, §4, §5, §6

[5] = test system: PPARG; experiment: Gene expression custom microarray, human skin fibroblasts (Example 1): PPARG; conditions: for fold induction at 10 µM: Skin fibroblast, read-out: PPARG↑ gene expression, fold increase or decrease vs untreated cells
Source text: as §1, §2
as §3, with “ETOH.” for “ETOH. The concentration of each test compound is found in Tables 1 & 2.”
as §4, §5, §7

[6] = test system: TRPA1; experiment: Gene expression custom microarray, human skin fibroblasts (Example 1): TRPA1; conditions: human skin fibroblasts, 10 uM, 24 hr; for fold induction at 10 µM: Skin fibroblast, read-out: TRPA1↑ gene expression, fold increase or decrease vs untreated cells
Source text: as §1, §2, §3, §4, §5, §6

[7] = test system: TRPM8; experiment: Gene expression custom microarray, human skin fibroblasts (Example 1): TRPM8; conditions: 24 hr; for TRPM8↑ gene expression, fold increase or decrease vs untreated cells: 10 uM; for fold induction at 10 µM: Skin fibroblast, read-out: TRPM8↑ gene expression, fold increase or decrease vs untreated cells
Source text: as §1, §2, §3, §4, §5, §6

[8] = test system: CNR1; experiment: Gene expression custom microarray, human skin fibroblasts (Example 1): CNR1; conditions: human skin fibroblasts, 10 uM, 24 hr; for fold induction at 10 µM: Skin fibroblast, read-out: CNR1↑ gene expression, fold increase or decrease vs untreated cells
Source text: as §1, §2, §3, §4, §5, §6

[9] = test system: CNR2; experiment: Gene expression custom microarray, human skin fibroblasts (Example 1): CNR2; conditions: human skin fibroblasts, 10 uM, 24 hr; for fold induction at 10 µM: Skin fibroblast, read-out: CNR2↑ gene expression, fold increase or decrease vs untreated cells
Source text: as §1, §2, §3, §4, §5, §6

[10] = test system: TRPV1; experiment: Gene expression custom microarray, human skin fibroblasts (Example 1): TRPV1; conditions: 10 uM, 24 hr
Source text: as §1, §2, §3, §4
At the end of the 24 hr time period, the plates were removed from the incubator, the test media aspirated, and the cells rinsed with PBS. RNA isolation is performed using the BioRad Aurum Total RNA Mini Kit (Hercules, Calif.) per manufacturer's protocol; which is described, in brief, below: • Add 350 μl of lysis buffer to each well. Pipet multiple times to ensure thorough lysis. Add lysed cells to the collection tube. • Add 350 μl of 70% ETOH to the collection tube and mix thoroughly. • Pipet the generated lysate onto the spin column placed in a new 2 ml tube. Centrifuge for 30 sec between 8,000 and 10,000 g. • Place the spin column containing the now bound RNA, in a new 2 ml tube. Add 700 μl of low stringency wash solution to the spin column. Centrifuge for 30 sec between 8,000 and 10,000 g. […] Allow 1 minute for saturation of the membrane and then centrifuge for 2 minutes to complete the RNA elution. • Quantify the quantity of RNA and store at −20 C° until use (no more than 1 month) […]

[11] = test system: IL1A; experiment: Gene expression custom microarray, human skin fibroblasts (Example 1): IL1A; conditions: 24 hr; for IL1A↓ gene expression, fold increase or decrease vs untreated cells: 10 uM; for fold induction at 10 µM: Skin fibroblast, read-out: IL1A↓ gene expression, fold increase or decrease vs untreated cells
Source text: as §1, §2, §3, §4, §5, §6

[12] = human skin fibroblasts, 10 uM, 24 hr

Row | SMILES | MAGL↓ gene expression, fold increase or decrease vs untreated cells [1] | NFKB1↓ gene expression, fold increase or decrease vs untreated cells [2, 12] | TRPA1↑ gene expression, fold increase or decrease vs untreated cells [6] | PTGS1↓ gene expression, fold increase or decrease vs untreated cells [3] | TRPM8↑ gene expression, fold increase or decrease vs untreated cells [7] | CNR1↑ gene expression, fold increase or decrease vs untreated cells [8] | FAAH↓ gene expression, fold increase or decrease vs untreated cells [4, 12] | CNR2↑ gene expression, fold increase or decrease vs untreated cells [9] | TRPV1↑ gene expression, fold increase or decrease vs untreated cells [10] | PPARG↑ gene expression, fold increase or decrease vs untreated cells [5, 12] | IL1A↓ gene expression, fold increase or decrease vs untreated cells [11] | fold induction at 10 µM [6] | fold induction at 10 µM [7] | fold induction at 10 µM [8] | fold induction at 10 µM [4, 12] | fold induction at 10 µM [9] | fold induction at 10 µM [11] | other results
1 | O=c1cc(-c2ccccc2)oc2cc(O)ccc12 [7-Hydroxyflavone] |  |  |  |  |  |  |  |  |  |  |  |  |  |  |  |  |  | fold induction at 10 µM ([1]; Homo sapiens, Skin fibroblast, 24 h, read-out: MAGL↓ gene expression, fold increase or decrease vs untreated cells): 2; fold induction at 10 µM ([2]; Homo sapiens, 24 h): 1.1; fold induction at 10 µM ([3]; Homo sapiens, Skin fibroblast, 24 h, read-out: PTGS1↓ gene expression, fold increase or decrease vs untreated cells): 1.4; fold induction at 10 µM ([4]; Homo sapiens, 24 h): 1.2; fold induction at 10 µM ([5]; Homo sapiens, 24 h): 1.4
2 | C=C1CC/C=C(\C)CC[C@@H]2[C@@H]1CC2(C)C [B-Caryphyllene, B-Caryophyllene] | 1 fold | −1.3 fold | 0 fold | −1.5 fold | 5.5 fold | 0 fold | −1.6 fold | 0 fold | 2 fold | −1.6 fold | 0 fold |  |  |  |  |  |  | 
3 | COc1cc(/C=C/C(=O)CC(=O)/C=C/c2ccc(O)c(OC)c2)ccc1O [Curcumin] |  |  |  |  |  |  |  |  |  |  |  | 4.9 | 47.9 | 47.4 | 1.8 | 55.4 | 4.9 | fold induction at 10 µM [2, 12]: 1.1
4 | C=CCc1ccc(O)c(OC)c1 [Eugenol] |  |  |  |  |  |  |  |  |  |  |  | 30.1 | 152 | 148 | 3 | 109 | 39.2 | fold induction at 10 µM [5, 12]: 1.6
5 | C[C@@H]1C(=O)O[C@H]2[C@H](O)[C@@]34[C@H]5C[C@@H](C(C)(C)C)[C@]36[C@@H](OC(=O)[C@@H]6O)O[C@@]4(C(=O)O5)[C@@]12O [Ginkolide, Ginkolide B] | 2.3 fold | −1.2 fold | 1.1 fold | −1.3 fold | 2.1 fold | 1.1 fold | −1.1 fold | −1.2 fold | −2.6 fold | −1.3 fold | −3.3 fold |  |  |  |  |  |  | 
